In patent US20230365627A1, “MACROCYCLIC PEPTIDE BORONATE IMMUNOMODULATORS” (Bristol-Myers Squibb Company, priority 2020, published 2023):
*1 amine or outer side, *2 acyl side, *3 side chain or, on linkers, in order; H or OH if unused. Where a SMILES comes first, the peptide text is derived from it. Bridges are numbered along the chain shown (N, C = ends). [ ]: non-standard residue; d: D form. X16 = O=C([C@H](CN(Cc1cccc(B(O)O[*:3])c1)Cc1cccc2ccc3ccccc3c12)N[*:1])[*:2]; Trp(1-CH2CO) = O=C([C@H](Cc1cn(CC(=O)[*:3])c2ccccc12)N[*:1])[*:2]; X28 = O=C([C@H](CNCc1cc(F)c(F)cc1B(O)O[*:3])N[*:1])[*:2]; X29 = COc1ccc(B(O)O[*:3])c(CNC[C@H](N[*:1])C(=O)[*:2])c1; Trp(1-CH2COOH) = N[C@@H](Cc1cn(CC(=O)O)c2ccccc12)C(=O)O; X21 = Cc1ccc(B(O)O[*:3])c(CNC[C@H](N[*:1])C(=O)[*:2])c1; X30 = O=C([C@H](CNCc1ccc(B(O)O)cc1C(F)(F)F)N[*:1])[*:2]; X19 = O=C([C@H](CNCc1cccc(B(O)O[*:3])c1F)N[*:1])[*:2]; X2 = O=C([C@H](CNCc1ccc(B(O)O[*:3])cn1)N[*:1])[*:2]; X27 = O=C([C@H](CNCc1ccccc1B(O)O[*:3])N[*:1])[*:2]; X17 = O=C([C@H](CCNCc1cccc(B(O)O)c1)N[*:1])[*:2]; Hyp = O=C(O)[C@@H]1C[C@@H](O)CN1; NMeNle = CCCC[C@H](NC)C(=O)O; NMeA = CN[C@@H](C)C(=O)O; Dab = NCC[C@H](N)C(=O)O

Target: PD-1/PD-L1 (Homo sapiens (Human), UniProt Q9NZQ7)
Experiment: PD-1/PD-L1 Homogenous Time-Resolved Fluorescence (HTRF) binding assay
Details: PD-L1-His 10 nM, PD-1-Ig 20 nM; read-out: HTRF IC50

Sequence of PD-1/PD-L1 (Q9NZQ7 18-239): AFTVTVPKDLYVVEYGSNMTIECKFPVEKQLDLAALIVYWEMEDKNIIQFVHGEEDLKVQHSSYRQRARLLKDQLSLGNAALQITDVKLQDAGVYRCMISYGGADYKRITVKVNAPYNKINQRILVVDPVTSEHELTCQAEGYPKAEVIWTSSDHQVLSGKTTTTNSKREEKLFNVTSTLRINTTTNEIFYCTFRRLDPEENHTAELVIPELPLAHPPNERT

Row | Structure (SMILES) | IC50
1 | CCCC[C@H]1C(=O)N(C)[C@@H](CCCC)C(=O)N[C@@H](CC(C)C)C(=O)N[C@H](C(=O)NCC(N)=O)CSCC(=O)N[C@@H](Cc2ccc(O)cc2)C(=O)N(C)[C@@H](C)C(=O)N[C@@H](CC(N)=O)C(=O)N2CCC[C@H]2C(=O)N[C@H]2CNCc3ccccc3B(O)OC(=O)Cn3cc(c4ccccc43)C[C@H](NC(=O)[C@H](CCN)NC(=O)[C@H](Cc3c[nH]c4ccccc34)NC(=O)[C@@H]3C[C@@H](O)CN3C(=O)[C@H](CC(C)C)NC2=O)C(=O)N1C [Example 1003] ({CH2CO}-Y[NMeA]NP[X27]L[Hyp]W[Dab][Trp(1-CH2CO)][NMeNle][NMeNle]LCG-NH2; ester 5-10; thioether N-14) | 7.8 nM
2 | CCCC[C@H]1C(=O)N(C)[C@@H](CCCC)C(=O)N[C@@H](CC(C)C)C(=O)N[C@H](C(=O)NCC(N)=O)CSCC(=O)N[C@@H](Cc2ccc(O)cc2)C(=O)N(C)[C@@H](C)C(=O)N[C@@H](CC(N)=O)C(=O)N2CCC[C@H]2C(=O)N[C@H]2CN(Cc3cccc4ccc5ccccc5c34)Cc3cccc(c3)B(O)OC(=O)Cn3cc(c4ccccc43)C[C@H](NC(=O)[C@H](CCNCc3cccc(B(O)O)c3)NC(=O)[C@H](Cc3c[nH]c4ccccc34)NC(=O)[C@@H]3C[C@@H](O)CN3C(=O)[C@H](CC(C)C)NC2=O)C(=O)N1C [Example 1042] ({CH2CO}-Y[NMeA]NP[X16]L[Hyp]W[X17][Trp(1-CH2CO)][NMeNle][NMeNle]LCG-NH2; ester 5-10; thioether N-14) | 94 nM
3 | CCCC[C@H]1C(=O)N(C)[C@@H](CCCC)C(=O)N[C@@H](CC(C)C)C(=O)N[C@H](C(=O)NCC(N)=O)CSCC(=O)N[C@@H](Cc2ccc(O)cc2)C(=O)N(C)[C@@H](C)C(=O)N[C@@H](CC(N)=O)C(=O)N2CCC[C@H]2C(=O)N[C@H]2CNCc3cc(F)c(F)cc3B(O)OC(=O)Cn3cc(c4ccccc43)C[C@H](NC(=O)[C@H](CCN)NC(=O)[C@H](Cc3c[nH]c4ccccc34)NC(=O)[C@@H]3C[C@@H](O)CN3C(=O)[C@H](CC(C)C)NC2=O)C(=O)N1C [Example 1024] ({CH2CO}-Y[NMeA]NP[X28]L[Hyp]W[Dab][Trp(1-CH2CO)][NMeNle][NMeNle]LCG-NH2; ester 5-10; thioether N-14) | 9.4 nM
4 | CCCC[C@H]1C(=O)N(C)[C@@H](CCCC)C(=O)N[C@@H](CC(C)C)C(=O)N[C@H](C(=O)NCC(N)=O)CSCC(=O)N[C@@H](Cc2ccc(O)cc2)C(=O)N(C)[C@@H](C)C(=O)N[C@@H](CC(N)=O)C(=O)N2CCC[C@H]2C(=O)N[C@H]2CNCc3cccc(c3F)B(O)OC(=O)Cn3cc(c4ccccc43)C[C@H](NC(=O)[C@H](CCN)NC(=O)[C@H](Cc3c[nH]c4ccccc34)NC(=O)[C@@H]3C[C@@H](O)CN3C(=O)[C@H](CC(C)C)NC2=O)C(=O)N1C [Example 1015] ({CH2CO}-Y[NMeA]NP[X19]L[Hyp]W[Dab][Trp(1-CH2CO)][NMeNle][NMeNle]LCG-NH2; ester 5-10; thioether N-14) | 6.7 nM
5 | CCCC[C@H]1C(=O)N(C)[C@@H](CCCC)C(=O)N[C@@H](CC(C)C)C(=O)N[C@H](C(=O)NCC(N)=O)CSCC(=O)N[C@@H](Cc2ccc(O)cc2)C(=O)N(C)[C@@H](C)C(=O)N[C@@H](CC(N)=O)C(=O)N2CCC[C@H]2C(=O)N[C@H]2CNCc3cc(C)ccc3B(O)OC(=O)Cn3cc(c4ccccc43)C[C@H](NC(=O)[C@H](CCN)NC(=O)[C@H](Cc3c[nH]c4ccccc34)NC(=O)[C@@H]3C[C@@H](O)CN3C(=O)[C@H](CC(C)C)NC2=O)C(=O)N1C [Example 1016] ({CH2CO}-Y[NMeA]NP[X21]L[Hyp]W[Dab][Trp(1-CH2CO)][NMeNle][NMeNle]LCG-NH2; ester 5-10; thioether N-14) | 8.3 nM
6 | CCCC[C@H]1C(=O)N(C)[C@@H](CCCC)C(=O)N[C@@H](CC(C)C)C(=O)N[C@H](C(=O)NCC(N)=O)CSCC(=O)N[C@@H](Cc2ccc(O)cc2)C(=O)N(C)[C@@H](C)C(=O)N[C@@H](CC(N)=O)C(=O)N2CCC[C@H]2C(=O)N[C@H]2CNCc3ccc(cn3)B(O)OC(=O)Cn3cc(c4ccccc43)C[C@H](NC(=O)[C@H](CCN)NC(=O)[C@H](Cc3c[nH]c4ccccc34)NC(=O)[C@@H]3C[C@@H](O)CN3C(=O)[C@H](CC(C)C)NC2=O)C(=O)N1C [Example 1010] ({CH2CO}-Y[NMeA]NP[X2]L[Hyp]W[Dab][Trp(1-CH2CO)][NMeNle][NMeNle]LCG-NH2; ester 5-10; thioether N-14) | 8.6 nM
7 | CCCC[C@H]1C(=O)N(C)[C@@H](CCCC)C(=O)N[C@@H](CC(C)C)C(=O)N[C@H](C(=O)NCC(N)=O)CSCC(=O)N[C@H]2Cc3ccc(cc3)OB(O)c3ccc(C)cc3CNCC[C@@H]3NC(=O)[C@H](Cc4c[nH]c5ccccc45)NC(=O)[C@@H]4C[C@@H](O)CN4C(=O)[C@H](CC(C)C)NC(=O)[C@H](CNCc4cc(C)ccc4B(O)OC(=O)Cn4cc(c5ccccc54)C[C@H](NC3=O)C(=O)N1C)NC(=O)[C@@H]1CCCN1C(=O)[C@H](CC(N)=O)NC(=O)[C@H](C)N(C)C2=O [Example 1021] | 5.3 nM
8 | CCCC[C@H]1C(=O)N(C)[C@@H](CCCC)C(=O)N[C@@H](CC(C)C)C(=O)N[C@H](C(=O)NCC(N)=O)CSCC(=O)N[C@@H](Cc2ccc(O)cc2)C(=O)N(C)[C@@H](C)C(=O)N[C@@H](CC(N)=O)C(=O)N2CCC[C@H]2C(=O)N[C@@H](CNCc2ccc(B(O)O)cc2C(F)(F)F)C(=O)N[C@@H](CC(C)C)C(=O)N2C[C@H](O)C[C@H]2C(=O)N[C@@H](Cc2c[nH]c3ccccc23)C(=O)N[C@@H](CCN)C(=O)N[C@@H](Cc2cn(CC(=O)O)c3ccccc23)C(=O)N1C [Example 1025] ({CH2CO}-Y[NMeA]NP[X30]L[Hyp]W[Dab][Trp(1-CH2COOH)][NMeNle][NMeNle]LCG-NH2; thioether N-14) | 14 nM
9 | CCCC[C@H]1C(=O)N(C)[C@@H](CCCC)C(=O)N[C@@H](CC(C)C)C(=O)N[C@H](C(=O)NCC(N)=O)CSCC(=O)N[C@@H](Cc2ccc(O)cc2)C(=O)N(C)[C@@H](C)C(=O)N[C@@H](CC(N)=O)C(=O)N2CCC[C@H]2C(=O)N[C@H]2CNCc3cc(OC)ccc3B(O)OC(=O)Cn3cc(c4ccccc43)C[C@H](NC(=O)[C@H](CCN)NC(=O)[C@H](Cc3c[nH]c4ccccc34)NC(=O)[C@@H]3C[C@@H](O)CN3C(=O)[C@H](CC(C)C)NC2=O)C(=O)N1C [Example 1006] ({CH2CO}-Y[NMeA]NP[X29]L[Hyp]W[Dab][Trp(1-CH2CO)][NMeNle][NMeNle]LCG-NH2; ester 5-10; thioether N-14) | 9 nM
